Assay results from ChEMBL document CHEMBL5674860, “Optimized Dual-Glo Assay to identify co-culture-induced drug vulnerabilities in 3D CRC models” (2024).

What was measured:
Format in all cases: functional, Homo sapiens
Design in all cases: dose or concentration left out as unconfirmed
Colon cancer organoid [1] = assay: Optimized Dual-Glo assay to identify co-culture induced drug vulnerabilities using donated chemical probes and chemogenomics kinase set in O06 CRC organoid and F06 CAF mono and co-culture. […] Cell viability is reported both mono and co-culture models.
Colon cancer organoid [2] = assay: Optimized Dual-Glo assay to identify co-culture induced drug vulnerabilities using donated chemical probes and chemogenomics kinase set in O14 CRC organoid and F14 CAF mono and co-culture. […] Cell viability is reported both mono and co-culture models.
Colon cancer organoid [3] = assay: Optimized Dual-Glo assay to identify co-culture induced drug vulnerabilities using donated chemical probes and chemogenomics kinase set in O20 CRC organoid and F20 CAF mono and co-culture. […] Cell viability is reported both mono and co-culture models.
[4] = Culture type Co-Culture, Transduced with Lucferase2-P2A-EGFP lentivirus
[5] = Culture type Co-Culture, Transduced with Renilla-dsRed lentivirus
[6] = Culture type Mono-Culture, Transduced with Lucferase2-P2A-EGFP lentivirus
[7] = Culture type Mono-Culture, Transduced with Renilla-dsRed lentivirus

| Structure (SMILES) | Cell Viability (Colon cancer organoid [1]; [4]) | Cell Viability (Colon cancer organoid [1]; [5]) | Cell Viability (Colon cancer organoid [1]; [6]) | Cell Viability (Colon cancer organoid [1]; [7]) | Cell Viability (Colon cancer organoid [2]; [4]) | Cell Viability (Colon cancer organoid [2]; [5]) | Cell Viability (Colon cancer organoid [2]; [6]) | Cell Viability (Colon cancer organoid [2]; [7]) | Cell Viability (Colon cancer organoid [3]; [4]) | Cell Viability (Colon cancer organoid [3]; [5]) | Cell Viability (Colon cancer organoid [3]; [6]) | Cell Viability (Colon cancer organoid [3]; [7]) |
| --- | --- | --- | --- | --- | --- | --- | --- | --- | --- | --- | --- | --- |
| CCC(=O)N[C@H]1CC[C@@H](C(=O)N(C)c2ccc(-c3nc4ccccc4o3)cc2)C1 [BI 99179] | 7.905% | 448.988% | 13.2074% | 86.3048% | 36.4327% | 197.223% | 76.5692% | 108.528% | 33.9891% | 149.12% | 57.7768% | 75.3735% |
| CCC(=O)N[C@@H]1CC[C@H](C(=O)N(C)c2ccc(-c3nc4ccccc4o3)cc2)C1 [BI 99990] | 135.832% | 173.184% | 107.841% | 87.7071% | 87.159% | 112.98% | 99.3505% | 100.76% | 115.817% | 121.154% | 99.9084% | 146.017% |
| CCS(=O)(=O)c1cc2cc(C[C@](O)(CC(C)(C)c3ccc(F)cc3C(N)=O)C(F)(F)F)[nH]c2cn1 [BI 653048] | 136.436% | 297.33% | 97.0766% | 179.661% | 98.1614% | 169.499% | 94.8893% | 163.254% | 85.6205% | 287.465% | 124.389% | 135.577% |
| CC[C@H](CC(=O)O)n1c(=O)c2ncccc2n(Cc2cn(C)c3cc(C)cc(C)c23)c1=O [BI-1942] | 119.907% | 136.619% | 121.189% | 103.918% | 138.147% | 85.0736% | 117.29% | 91.8874% | 107.514% | 100.799% | 88.7956% | 92.5825% |
| CC[C@@H]1C(=O)N(C)c2cnc(Nc3ccc(C(=O)NC4CCN(C)CC4)cc3OC)nc2N1C1CCCC1 [BI-2536] | 3.341% | 324.743% | 5.694% | 205.81% | 6.08% | 320.789% | 25.6478% | 192.03% | 3.7112% | 168.723% | 5.1365% | 106.916% |
| CN(C)C(=O)c1sc2nc(N3CCC(S(C)(=O)=O)CC3)cc(C(F)(F)F)c2c1N [BI-5026] | 108.851% | 103.89% | 124.761% | 97.708% | 89.3398% | 95.8994% | 89.8333% | 92.7462% | 82.5801% | 112.021% | 96.6036% | 91.1442% |
| CCC(F)(F)c1cc(N2CCC(S(C)(=O)=O)CC2)nc2sc(C(N)=O)c(N)c12 [BI-605906] | 93.6384% | 92.3898% | 93.147% | 102.109% | 108.411% | 90.1855% | 95.9322% | 83.0517% | 178.631% | 81.0914% | 102.635% | 91.2338% |
| CCOc1ccn(-c2ccc(F)cc2)c(=O)c1C(=O)Nc1ccc(Oc2ccnc(N)c2Cl)c(F)c1 [BMS-777607] | 91.8113% | 94.0587% | 160.363% | 101.253% | 80.1334% | 87.7624% | 119.97% | 83.2963% | 100.473% | 72.8578% | 109.106% | 74.8704% |
| O=c1nc(-c2ccccn2)sc2ccccc12 [BTZO-1] | 150.72% | 152.299% | 108.701% | 93.9423% | 72.8422% | 97.4125% | 100.899% | 88.8475% | 113.092% | 104.485% | 93.617% | 87.2617% |
| O=C1NC(c2ccccn2)Sc2ccccc21 (stereo not given) [BTZO-4] | 120.289% | 168.274% | 120.842% | 96.0026% | 61.6346% | 107.214% | 121.016% | 104.244% | 109.35% | 85.8309% | 124.511% | 93.402% |
